According to PMC5218480 (PLoS ONE, 2017):

Tested on: MV-4-11 cells
Test: Gene expression microarray analysis (Affymetrix PrimeView) and GSEA
Format: cell-based, human
Design: RFU PODN (11730768_x_at) / Fold change /veh PODN (11730768_x_at) / RFU LINC00158 (11744669_a_at) / Fold change /veh LINC00158 (11744669_a_at) / RFU DUSP10 (11751237_a_at) / Fold change /veh DUSP10 (11751237_a_at) / RFU ID3 (11757404_x_at) / Fold change /veh ID3 (11757404_x_at) / RFU PLEKHG5 (11737974_s_at) / Fold change /veh PLEKHG5 (11737974_s_at) / RFU LRRC4B (11730491_at) / Fold change /veh LRRC4B (11730491_at) / RFU GIMAP4 (11747438_a_at) / Fold change /veh GIMAP4 (11747438_a_at) / RFU KRT8 (11758183_x_at) / Fold change /veh KRT8 (11758183_x_at) / RFU CNN1 (11734310_a_at) / Fold change /veh CNN1 (11734310_a_at) / RFU VPS37D (11726825_at) / Fold change /veh VPS37D (11726825_at) / RFU C10orf10 (11716522_x_at) / Fold change /veh C10orf10 (11716522_x_at) / RFU KIR2DL2 /// KIR2DL4 /// KIR2DL5A /// KIR2DL5B /// KIR2DS1 /// KIR2DS2 /// KIR2DS3 /// KIR2DS4 /// KIR3DL3 /// KIR3DL3 /// KIR3DS1 (11738374_at) / Fold change /veh KIR2DL2 /// KIR2DL4 /// KIR2DL5A /// KIR2DL5B /// KIR2DS1 /// KIR2DS2 /// KIR2DS3 /// KIR2DS4 /// KIR3DL3 /// KIR3DL3 /// KIR3DS1 (11738374_at) / RFU C1QL1 (11718748_at) / Fold change /veh C1QL1 (11718748_at) / RFU TMPRSS4 (11747572_a_at) / Fold change /veh TMPRSS4 (11747572_a_at) / RFU HAMP (11756126_x_at) / Fold change /veh HAMP (11756126_x_at) / RFU RNFT2 (11725882_a_at) / Fold change /veh RNFT2 (11725882_a_at) / RFU NR4A2 (11747474_a_at) / Fold change /veh NR4A2 (11747474_a_at) / RFU ABCC12 (11746883_a_at) / Fold change /veh ABCC12 (11746883_a_at) / RFU TMEM136 (11760407_x_at) / Fold change /veh TMEM136 (11760407_x_at) / RFU CLDN22 /// WWC2 (11732394_at) / Fold change /veh CLDN22 /// WWC2 (11732394_at) / RFU HLA-DPB1 (11760878_x_at) / Fold change /veh HLA-DPB1 (11760878_x_at) / RFU SPINT1 (11716480_a_at) / Fold change /veh SPINT1 (11716480_a_at) / RFU GAP43 (11754022_s_at) / Fold change /veh GAP43 (11754022_s_at) / RFU A4GNT (11735810_at) / Fold change /veh A4GNT (11735810_at) / RFU PRB3 (11715151_x_at) / Fold change /veh PRB3 (11715151_x_at) / RFU TUBB4B (11761932_at) / Fold change /veh TUBB4B (11761932_at) / RFU CAPN14 (11732068_a_at) / Fold change /veh CAPN14 (11732068_a_at) / RFU TMCC2 (11721928_a_at) / Fold change /veh TMCC2 (11721928_a_at) / RFU IRGQ (11745062_a_at) / Fold change /veh IRGQ (11745062_a_at) / RFU FAM174B (11720279_a_at) / Fold change /veh FAM174B (11720279_a_at) / RFU TMPRSS4 (11748680_a_at) / Fold change /veh TMPRSS4 (11748680_a_at) / RFU FAM212B (11763350_a_at) / Fold change /veh FAM212B (11763350_a_at) / RFU PLEKHG5 (11743358_a_at) / Fold change /veh PLEKHG5 (11743358_a_at) / RFU ZSCAN30 (11745921_a_at) / Fold change /veh ZSCAN30 (11745921_a_at) / RFU CMKLR1 (11741424_a_at) / Fold change /veh CMKLR1 (11741424_a_at) / RFU LOC101060620 /// MAPK8IP1 (11723275_at) / Fold change /veh LOC101060620 /// MAPK8IP1 (11723275_at) / RFU SPTSSB (11747773_x_at) / Fold change /veh SPTSSB (11747773_x_at) / RFU PRSS12 (11739890_at) / Fold change /veh PRSS12 (11739890_at) / RFU BIN1 (11741810_x_at) / Fold change /veh BIN1 (11741810_x_at) / RFU WNT11 (11732464_a_at) / Fold change /veh WNT11 (11732464_a_at) / RFU C10orf10 (11716521_a_at) / Fold change /veh C10orf10 (11716521_a_at) / RFU C5orf56 (11738089_at) / Fold change /veh C5orf56 (11738089_at) / RFU CYB561 (11721691_x_at) / Fold change /veh CYB561 (11721691_x_at) / RFU ANKRD19P (11752326_a_at) / Fold change /veh ANKRD19P (11752326_a_at) / RFU OR2T12 /// OR2T33 /// OR2T8 (11738714_s_at) / Fold change /veh OR2T12 /// OR2T33 /// OR2T8 (11738714_s_at) / RFU VCAN (11748164_a_at) / Fold change /veh VCAN (11748164_a_at) / RFU JSRP1 (11732532_at) / Fold change /veh JSRP1 (11732532_at) / RFU KRTAP10-11 (11738290_x_at) / Fold change /veh KRTAP10-11 (11738290_x_at) / RFU MYO3A (11730013_a_at) / Fold change /veh MYO3A (11730013_a_at) / RFU EBF3 (11725865_a_at) / Fold change /veh EBF3 (11725865_a_at) / RFU CAMK2N1 (11719241_x_at) / Fold change /veh CAMK2N1 (11719241_x_at) / RFU C5orf56 (11738088_a_at) / Fold change /veh C5orf56 (11738088_a_at) / RFU OLFML3 (11715873_a_at) / Fold change /veh OLFML3 (11715873_a_at) / RFU LOC100653217 /// NTM (11731650_a_at) / Fold change /veh LOC100653217 /// NTM (11731650_a_at) / RFU MAPK11 (11762145_a_at) / Fold change /veh MAPK11 (11762145_a_at) / RFU FIZ1 (11724087_x_at) / Fold change /veh FIZ1 (11724087_x_at) / RFU OASL (11726364_x_at) / Fold change /veh OASL (11726364_x_at) / RFU SOX15 (11748057_x_at) / Fold change /veh SOX15 (11748057_x_at) / RFU CD79A (11719716_a_at) / Fold change /veh CD79A (11719716_a_at) / RFU HIST1H1D (11736915_at) / Fold change /veh HIST1H1D (11736915_at) / RFU CASKIN2 (11723855_a_at) / Fold change /veh CASKIN2 (11723855_a_at) / RFU LOC730098 (11760151_x_at) / Fold change /veh LOC730098 (11760151_x_at) / RFU OR4N2 (11742367_at) / Fold change /veh OR4N2 (11742367_at) / RFU PRRT2 (11749266_a_at) / Fold change /veh PRRT2 (11749266_a_at) / RFU SNX32 (11753110_a_at) / Fold change /veh SNX32 (11753110_a_at) / RFU CDHR5 (11726645_a_at) / Fold change /veh CDHR5 (11726645_a_at) / RFU RCAN1 (11760418_a_at) / Fold change /veh RCAN1 (11760418_a_at) / RFU FAM167A (11723789_a_at) / Fold change /veh FAM167A (11723789_a_at) / RFU FAM26E (11764081_at) / Fold change /veh FAM26E (11764081_at) / RFU ISYNA1 (11749810_s_at) / Fold change /veh ISYNA1 (11749810_s_at) / RFU ACY1 (11761880_at) / Fold change /veh ACY1 (11761880_at) / RFU 11764098_at / Fold change /veh 11764098_at / RFU SAMD14 (11745864_x_at) / Fold change /veh SAMD14 (11745864_x_at) / RFU NPB (11741838_a_at) / Fold change /veh NPB (11741838_a_at) / RFU TMPRSS6 (11731388_a_at) / Fold change /veh TMPRSS6 (11731388_a_at) / RFU KRTAP10-2 (11738614_at) / Fold change /veh KRTAP10-2 (11738614_at) / RFU ARHGAP8 /// PRR5-ARHGAP8 (11727945_x_at) / Fold change /veh ARHGAP8 /// PRR5-ARHGAP8 (11727945_x_at) / RFU KRTAP5-7 /// NADSYN1 (11734609_at) / Fold change /veh KRTAP5-7 /// NADSYN1 (11734609_at) / RFU RASL12 (11751679_a_at) / Fold change /veh RASL12 (11751679_a_at) / RFU CDKN2B (11736163_a_at) / Fold change /veh CDKN2B (11736163_a_at) / RFU PRF1 (11729649_at) / Fold change /veh PRF1 (11729649_at) / RFU, ZNF638 /// ZNF638-IT1 / Fold change vs veh, ZNF638 /// ZNF638-IT1 / RFU, PANK3 / Fold change vs veh, PANK3 / RFU, SH3YL1 / Fold change vs veh, SH3YL1 / RFU, ZEB2 / Fold change vs veh, ZEB2 / RFU, NRIP1 / Fold change vs veh, NRIP1 / RFU, PTTG1IP / Fold change vs veh, PTTG1IP / RFU, CAPN2 / Fold change vs veh, CAPN2 / RFU, MED14 / Fold change vs veh, MED14 / RFU, SNORA58 / Fold change vs veh, SNORA58 / RFU, C1orf63 / Fold change vs veh, C1orf63 / RFU, LRRFIP1 / Fold change vs veh, LRRFIP1 / RFU, NDUFAF7 / Fold change vs veh, NDUFAF7 / RFU, SLC12A2 / Fold change vs veh, SLC12A2 / RFU, IBTK / Fold change vs veh, IBTK / RFU, ESF1 / Fold change vs veh, ESF1 / Fold change vs veh, TMEM50B / RFU, TAOK1 / Fold change vs veh, TAOK1 / RFU, ACBD3 / Fold change vs veh, ACBD3 / RFU, TMA16 / Fold change vs veh, TMA16 / RFU, RWDD3 / Fold change vs veh, RWDD3 / RFU, BCAT1 / Fold change vs veh, BCAT1 / RFU, EDEM3 / Fold change vs veh, EDEM3 / RFU, TMEM33 / Fold change vs veh, TMEM33 / RFU, WDR75 / Fold change vs veh, WDR75 / RFU, AHCTF1 / Fold change vs veh, AHCTF1 / RFU, TFRC / Fold change vs veh, TFRC / RFU, ZDHHC17 / Fold change vs veh, ZDHHC17 / RFU, NOM1 / Fold change vs veh, NOM1 / RFU, ARL8B / Fold change vs veh, ARL8B / RFU, ZBTB11 / Fold change vs veh, ZBTB11 / RFU, TAMM41 / Fold change vs veh, TAMM41 / RFU, KIAA1704 /// LOC100996395 / Fold change vs veh, KIAA1704 /// LOC100996395 / RFU, ING1 / Fold change vs veh, ING1 / RFU, TRMT61B / Fold change vs veh, TRMT61B / RFU, FUBP3 / Fold change vs veh, FUBP3 / RFU, TP53 / Fold change vs veh, TP53 / RFU, TNKS2 / Fold change vs veh, TNKS2 / RFU, ZFP14 / Fold change vs veh, ZFP14 / RFU, ACTR2 / Fold change vs veh, ACTR2 / RFU, PPP3R1 / Fold change vs veh, PPP3R1 / RFU, PIK3R1 / Fold change vs veh, PIK3R1 / RFU, HNRNPA1 / Fold change vs veh, HNRNPA1 / RFU, RNF170 / Fold change vs veh, RNF170 / RFU, ZNF28 / Fold change vs veh, ZNF28 / RFU, RNGTT / Fold change vs veh, RNGTT / RFU, OGT / Fold change vs veh, OGT / RFU, BRD1 / Fold change vs veh, BRD1 / RFU, MARS / Fold change vs veh, MARS / RFU, ZNF655 / Fold change vs veh, ZNF655 / RFU, FAHD1 / Fold change vs veh, FAHD1 / RFU, BDP1 / Fold change vs veh, BDP1 / RFU, LRRCC1 / Fold change vs veh, LRRCC1 / RFU, ARID1A / Fold change vs veh, ARID1A / RFU, ZNF146 / Fold change vs veh, ZNF146 / RFU, ZNF330 / Fold change vs veh, ZNF330 / RFU, GPN3 / Fold change vs veh, GPN3 / RFU, C9orf123 / Fold change vs veh, C9orf123 / RFU, N4BP2L2 / Fold change vs veh, N4BP2L2 / RFU, ARFIP1 / Fold change vs veh, ARFIP1 / RFU, FAM179B / Fold change vs veh, FAM179B / RFU, BCL10 / Fold change vs veh, BCL10 / RFU, UHRF1BP1L / Fold change vs veh, UHRF1BP1L / RFU, BET1 / Fold change vs veh, BET1 / RFU, CNOT2 / Fold change vs veh, CNOT2 / RFU, ZNF268 / Fold change vs veh, ZNF268 / Fold change vs veh, ZNF507 / RFU, DGCR2 / Fold change vs veh, DGCR2 / RFU, WDSUB1 / Fold change vs veh, WDSUB1 / Fold change vs veh, HSP90B1 /// MIR3652 / RFU, ADSS / Fold change vs veh, ADSS / RFU, GK / Fold change vs veh, GK / RFU, ZNF148 / Fold change vs veh, ZNF148 / RFU, TAF9 / Fold change vs veh, TAF9 / RFU, SLC1A5 / Fold change vs veh, SLC1A5 / RFU, SLMO2 / Fold change vs veh, SLMO2 / RFU, ABCC4 / Fold change vs veh, ABCC4 / RFU, LOC101060439 /// RAP1B / Fold change vs veh, LOC101060439 /// RAP1B / RFU, RFX7 / Fold change vs veh, RFX7 / RFU, GTPBP10 / Fold change vs veh, GTPBP10 / RFU, CNEP1R1 / Fold change vs veh, CNEP1R1 / RFU, BIVM-ERCC5 /// ERCC5 / Fold change vs veh, BIVM-ERCC5 /// ERCC5 / RFU, ILF3 / Fold change vs veh, ILF3 / RFU 11762660_at / Fold change /veh 11762660_at / RFU VCAN (11757783_s_at) / Fold change /veh VCAN (11757783_s_at) / RFU DDX43 (11728927_at) / Fold change /veh DDX43 (11728927_at) / RFU KRT8 (11758188_x_at) / Fold change /veh KRT8 (11758188_x_at) / RFU NKD1 (11759106_at) / Fold change /veh NKD1 (11759106_at) / RFU SRD5A1 (11742802_a_at) / Fold change /veh SRD5A1 (11742802_a_at) / RFU TPSAB1 /// TPSB2 (11721975_s_at) / Fold change /veh TPSAB1 /// TPSB2 (11721975_s_at) / RFU GSTM3 (11746129_a_at) / Fold change /veh GSTM3 (11746129_a_at) / RFU IL23R (11737362_x_at) / Fold change /veh IL23R (11737362_x_at) / RFU TMEM51 (11727254_a_at) / Fold change /veh TMEM51 (11727254_a_at) / RFU PIWIL2 (11732686_x_at) / Fold change /veh PIWIL2 (11732686_x_at) / RFU ORM1 (11744905_x_at) / Fold change /veh ORM1 (11744905_x_at) / RFU CCDC152 (11743942_at) / Fold change /veh CCDC152 (11743942_at) / RFU ECM1 (11717891_a_at) / Fold change /veh ECM1 (11717891_a_at) / RFU IL23R (11748794_a_at) / Fold change /veh IL23R (11748794_a_at) / RFU TNFAIP8L3 (11732012_x_at) / Fold change /veh TNFAIP8L3 (11732012_x_at) / RFU MBOAT4 (11741988_at) / Fold change /veh MBOAT4 (11741988_at) / RFU 11764193_at / Fold change /veh 11764193_at / RFU TMEM53 (11763286_at) / Fold change /veh TMEM53 (11763286_at) / RFU MAGEB2 (11727129_at) / Fold change /veh MAGEB2 (11727129_at) / RFU TMEM200A (11744735_a_at) / Fold change /veh TMEM200A (11744735_a_at) / RFU CCDC152 (11751479_a_at) / Fold change /veh CCDC152 (11751479_a_at) / RFU FAM211A (11726209_a_at) / Fold change /veh FAM211A (11726209_a_at) / RFU RGS16 (11746705_a_at) / Fold change /veh RGS16 (11746705_a_at) / RFU VCAN (11755009_s_at) / Fold change /veh VCAN (11755009_s_at) / RFU RHOB (11743442_s_at) / Fold change /veh RHOB (11743442_s_at) / RFU RGS16 (11720943_a_at) / Fold change /veh RGS16 (11720943_a_at) / RFU RGS16 (11720944_at) / Fold change /veh RGS16 (11720944_at) / RFU, VPS4B / Fold change vs veh, VPS4B / RFU, CREB1 / Fold change vs veh, CREB1 / RFU, DNAJC13 / Fold change vs veh, DNAJC13 / RFU, GNAQ / Fold change vs veh, GNAQ / RFU, CDK5R1 / Fold change vs veh, CDK5R1 / RFU, ZRANB3 / Fold change vs veh, ZRANB3 / RFU, CUL4A / Fold change vs veh, CUL4A / RFU, CCNY / Fold change vs veh, CCNY / RFU, UFL1 / Fold change vs veh, UFL1 / RFU, COG3 / Fold change vs veh, COG3 / RFU, DIAPH2 / Fold change vs veh, DIAPH2 / RFU, SKA2 / Fold change vs veh, SKA2 / RFU, AFF3 / Fold change vs veh, AFF3 / RFU, LMF1 / Fold change vs veh, LMF1 / RFU, IPO11 / Fold change vs veh, IPO11 / RFU, DFFB / Fold change vs veh, DFFB / RFU, FOXP1 / Fold change vs veh, FOXP1 / RFU, CARD8 / Fold change vs veh, CARD8 / RFU, STRN3 / Fold change vs veh, STRN3 / RFU, ADK / Fold change vs veh, ADK / RFU, RASSF2 / Fold change vs veh, RASSF2 / RFU, WIPF1 / Fold change vs veh, WIPF1 / RFU, LARP1B / Fold change vs veh, LARP1B / RFU, RASA1 / Fold change vs veh, RASA1 / RFU, RB1 / Fold change vs veh, RB1 / RFU, PPFIA1 / Fold change vs veh, PPFIA1 / RFU, MAT2A / Fold change vs veh, MAT2A / RFU, CCT5 / Fold change vs veh, CCT5 / RFU, WDR92 / Fold change vs veh, WDR92 / RFU, CUX1 / Fold change vs veh, CUX1 / RFU, TTC7A / Fold change vs veh, TTC7A / RFU, TMEM135 / Fold change vs veh, TMEM135 / RFU, DEPTOR / Fold change vs veh, DEPTOR / RFU, CPM / Fold change vs veh, CPM / RFU, DNAJB6 / Fold change vs veh, DNAJB6 / RFU, CACNA2D3 / Fold change vs veh, CACNA2D3 / RFU, DTX4 / Fold change vs veh, DTX4 / RFU, TFCP2 / Fold change vs veh, TFCP2 / RFU, GMCL1 /// GMCL1P1 / Fold change vs veh, GMCL1 /// GMCL1P1 / RFU, AEBP2 / Fold change vs veh, AEBP2 / RFU, SNHG1 /// SNORD22 /// SNORD25 /// SNORD26 /// SNORD27 /// SNORD28 /// SNORD29 /// SNORD31 / Fold change vs veh, SNHG1 /// SNORD22 /// SNORD25 /// SNORD26 /// SNORD27 /// SNORD28 /// SNORD29 /// SNORD31 / Fold change (Aza/veh), C12orf56 (ProbeSet 11735607_a_at) / Fold change (ACY-1035/veh), C12orf56 (ProbeSet 11735607_a_at) / Fold change (Aza/veh), FGFR1OP (ProbeSet 11751329_s_at) / Fold change (ACY-1035/veh), FGFR1OP (ProbeSet 11751329_s_at) / Fold change (Aza/veh), VPS36 (ProbeSet 11739960_a_at) / Fold change (ACY-1035/veh), VPS36 (ProbeSet 11739960_a_at) / RFU SYPL1 (11715823_x_at) / Fold change /veh SYPL1 (11715823_x_at) / RFU IGFBP7 (11715501_s_at) / Fold change /veh IGFBP7 (11715501_s_at) / RFU REEP3 (11722064_at) / Fold change /veh REEP3 (11722064_at) / RFU IGLL1 (11728026_x_at) / Fold change /veh IGLL1 (11728026_x_at): dose or concentration left out as unconfirmed
Details: ProbeSet 11724763_s_at; LIST D

SMILES: Nc1ncn([C@@H]2O[C@H](CO)[C@@H](O)[C@H]2O)c(=O)n1 [azacitidine]
- Fold change vs veh, DEPTOR: 0.65
